Measured values reported in patent US9199941B2, “Pyrazole indanyl carboxamides” (BAYER CROPSCIENCE AG, priority 2012, dated 2015).

What was measured:
[1] = log P by HPLC on reversed phase columns (EEC directive 79/831 Annex V.A8); type: physicochemical; details: Table 1, compounds of formula (I); method [a]: LC-MS at pH 2.7, 0.1% formic acid in water / acetonitrile
Pyrenophora teres = test: In vivo preventive test on Pyrenophora teres (net blotch on barley); details: preventive spray, barley plants, incubated 48 hours then 12 days; for Eff. %: 500 ppm; for Efficacy: 100 ppm
Procedure: Barley plants (“Plaisant” variety), sown in starter cups on a 50/50 peat soil-pozzolana substrate and grown at 22° C., are treated at the 1-leaf stage (10 cm height) by spraying with the active ingredient prepared as described above. Plants, used as controls, are treated with the mixture of acetone/tween/DMSO/water not containing the active material. After 24 hours, the plants are contaminated by spraying the leaves with an aqueous suspension of Pyrenophora teres spores (12 000 spores per ml). The spores are collected from a 12-day-old culture.

Puccinia recondita = test: In vivo preventive test on Puccinia recondita (brown rust on wheat); details: preventive spray, wheat plants, grading 12 days after contamination
Procedure: Plants, used as controls, are treated with the mixture of acetone/tween/DMSO/water not containing the active material. After 24 hours, the plants are contaminated by spraying the leaves with an aqueous suspension of Puccinia […] spores (100 000 spores per ml). […] Grading (% of efficacy) is carried out 12 days after the contamination, in comparison with the control plants.

Septoria tritici = test: In vivo preventive test on Septoria tritici (leaf spot on wheat); details: 500 ppm, preventive spray, wheat plants, grading 24 days after contamination
Procedure: Wheat plants (“Scipion” variety), sown in starter cups on a 50/50 peat soil-pozzolana substrate and grown at 22° C., are treated at the 1-leaf stage (10 cm height) by spraying with the active ingredient prepared as described above. Plants, used as controls, are treated with the mixture of acetone/tween/DMSO/water not containing the active material. After 24 hours, the plants are contaminated by spraying the leaves with an aqueous suspension of cryopreserved Septoria tritici spores (500 000 spores per ml). […] Grading (% of efficacy) is carried out 24 days after the contamination, in comparison with the control plants.

Sphaerotheca fuliginea = test: In vivo preventive test on Sphaerotheca fuliginea (powdery mildew on cucurbits); details: preventive spray, gherkin plants, grading 12 days after contamination
Procedure: Gherkin plants (“Vert petit de Paris” variety), sown in starter cups on a 50/50 peat soil-pozzolana substrate and grown at 24° C., are treated at the Z11 cotyledon stage by spraying with the active ingredient prepared as described above. Plants, used as controls, are treated with the mixture of acetone/tween/DMSO/water not containing the active material. After 24 hours, the plants are contaminated by spraying the cotyledons with an aqueous suspension of Sphaerotheca fuliginea spores (100 000 spores per ml). The spores are collected from infected plants. The contaminated gherkin plants are incubated at about 20° C. and at 70-80% relative humidity. Grading (% of efficacy) is carried out 12 days after the contamination, in comparison with the control plants.

Uromyces appendiculatus = test: In vivo preventive test on Uromyces appendiculatus (bean rust); details: preventive spray, bean plants, grading 11 days after contamination
Procedure: Bean plants (“Saxa” variety), sown in starter cups on a 50/50 peat soil-pozzolana substrate and grown at 24° C., are treated at the 2-leaf stage (9 cm height) by spraying with the active ingredient prepared as described above. Plants, used as controls, are treated with the mixture of acetone/tween/DMSO/water not containing the active material. After 24 hours, the plants are contaminated by spraying the leaves with an aqueous suspension of Uromyces appendiculatus spores (150 000 spores per ml). […] Grading (% of efficacy) is carried out 11 days after the contamination, in comparison with the control plants.

Alternaria brassicae = test: In vivo preventive test on Alternaria brassicae (leaf spot on radish); details: 500 ppm, preventive spray, radish plants, grading 6 days after contamination
Procedure: Radish plants (“Pernod Clair” variety), sown in starter cups on a 50/50 peat soil-pozzolana substrate and grown at 17° C., are treated at the cotyledon stage by spraying with the active ingredient prepared as described above. Plants, used as controls, are treated with the mixture of acetone/tween/DMSO/water not containing the active material. After 24 hours, the plants are contaminated by spraying the cotyledons with an aqueous suspension of Alternaria brassicae spores (50 000 spores per ml). The spores are collected from a 15-day-old culture. […] Grading (% of efficacy) is carried out 6 days after the contamination, in comparison with the control plants.

Botrytis cinerea = test: In vivo preventive test on Botrytis cinerea (grey mould), gherkin; details: preventive spray, gherkin plants, grading 4 to 5 days after contamination
Procedure: Gherkin plants (“Vert petit de Paris” variety), sown in starter cups on a 50/50 peat soil-pozzolana substrate and grown at 24° C., are treated at the Z11 cotyledon stage by spraying with the active ingredient prepared as described above. Plants, used as controls, are treated with the mixture of acetone/tween/DMSO/water not containing the active material. After 24 hours, the plants are contaminated by spraying the cotyledons with an aqueous suspension of cryopreserved Botrytis cinerea spores (50 000 spores per ml). The spores are suspended in a nutrient solution composed of 10 g/L of PDB, 50 g/L of D-Fructose, 2 g/L of NH4NO3 and 1 g/L of KH2PO4. The contaminated gherkin plants are incubated at 17° C. and at 90% relative humidity. Grading (% of efficacy) is carried out 4 to 5 days after the contamination, in comparison with the control plants.

Phakopsora pachyrhizi = test: In vivo Phakopsora test (soybeans) / preventive; details: 10 ppm of active ingredient, evaluated 7 days after the inoculation
Procedure: [table] To produce a suitable preparation of active compound, 1 part by weight of active compound is mixed with the stated amounts of solvent and emulsifier, and the concentrate is diluted with water to the desired concentration. To test for preventive activity, young plants are sprayed with the preparation of active compound at the stated rate of application. […] The plants remain in the incubation cabinet at approximately 24° C. and a relative atmospheric humidity of approximately 80% and a day/night interval of 12 h.

| Compound | logP [1] | Eff. % (Pyrenophora teres) [%] | Eff. % (Puccinia recondita; 500 ppm) [%] | Eff. % (Septoria tritici) [%] | Eff. % (Sphaerotheca fuliginea; 500 ppm) [%] | Eff. % (Uromyces appendiculatus; 500 ppm) [%] | Eff. % (Alternaria brassicae) [%] | Eff. % (Botrytis cinerea; 100 ppm) [%] | Eff. % (Puccinia recondita; 100 ppm) [%] | Eff. % (Sphaerotheca fuliginea; 100 ppm) [%] | Eff. % (Uromyces appendiculatus; 100 ppm) [%] | Efficacy (Pyrenophora teres) | Eff. % (Botrytis cinerea; 500 ppm) [%] | Eff. % (Phakopsora pachyrhizi) [%] |
| --- | --- | --- | --- | --- | --- | --- | --- | --- | --- | --- | --- | --- | --- | --- |
| CCC1(C)CCc2c(NC(=O)c3cn(C)nc3C(F)F)cccc21 (stereo not shown) [Example 24] | 3.62[a] | 80 | 98 | 92 | 98 | 97 |  |  |  |  |  |  |  |  |
| Cn1cc(C(=O)Nc2cccc3c2CCC32OCCO2)c(C(F)F)n1 [Example 12] | 1.9[a] |  | 83 |  |  |  | 86 |  |  |  |  |  |  |  |
| CC1CC2(CCCCC2)c2cccc(NC(=O)c3cn(C)nc3C(F)F)c21 (stereo not shown) [Example 46] | 4.2[a] |  |  |  |  |  |  | 75 | 100 | 100 | 100 |  |  |  |
| CCCON=C1CC(C)c2c(NC(=O)c3cn(C)nc3C(F)F)cccc21 (stereo not shown) [Example 11] | 3.26[a] | 83 | 81 |  |  | 90 | 93 |  |  |  |  |  |  |  |
| CC1CCc2cccc(NC(=O)c3cn(C)nc3C(F)F)c21 (stereo not shown) [Example 9] | 2.78[a] | 96 | 100 | 97 |  | 100 | 92 |  |  |  |  | at least 70% |  |  |
| CON=C1CC(C)c2c(NC(=O)c3c(C)nn(C)c3F)cccc21 (stereo not shown) [Example 27] | 2.33[a] |  | 86 |  |  |  | 75 |  |  |  |  |  |  |  |
| CCON=C1CC(C)c2c(NC(=O)c3cn(C)nc3C(F)F)cccc21 (stereo not shown) [Example 34] | 2.78[a] | 83 | 81 | 86 |  | 97 | 86 |  |  |  |  |  |  |  |
| CC1CC(CC(C)(C)C)c2cccc(NC(=S)c3cn(C)nc3C(F)F)c21 (stereo not shown) [Example 42] |  |  | 98 | 88 | 100 | 100 | 75 |  |  |  |  |  |  |  |
| CC1CC(C(C)C)c2cccc(NC(=O)c3cn(C)nc3C(F)F)c21 (stereo not shown) [Example 6] | 3.82[a] | 96 | 100 | 92 | 97 | 100 | 100 |  |  |  |  |  |  |  |
| Cc1nn(C)c(F)c1C(=O)Nc1cccc2c1C(C)CC2CC(C)C (stereo not shown) [Example 20] | 4.32[a] | 97 | 100 | 79 | 98 | 100 | 93 |  |  |  |  |  |  |  |
| CC(C)CC1CC(C)c2c(NC(=S)c3cn(C)nc3C(F)F)cccc21 (stereo not shown) [Example 44] |  |  | 100 | 88 | 100 | 100 | 95 |  |  |  |  |  | 73 |  |
| CC1CC2(CCCCC2)c2cccc(NC(=S)c3cn(C)nc3C(F)F)c21 (stereo not shown) [Example 53] | 4.67[a] |  |  |  |  |  |  | 82 | 100 | 100 | 100 |  |  |  |
| CC1CC2(CC2)c2cccc(NC(=S)c3cn(C)nc3C(F)F)c21 (stereo not shown) [Example 38] | 4.61[a] |  | 83 |  |  |  | 71 |  |  |  |  | 70% |  |  |
| CCCON=C1CC(C)c2c(NC(=O)c3c(C)nn(C)c3F)cccc21 (stereo not shown) [Example 19] | 3.24[a] | 75 | 81 |  | 89 | 93 |  |  |  |  |  |  |  |  |
| CC1CC2(CC2)c2cccc(NC(=S)c3cn(C)nc3C(F)(F)F)c21 (stereo not shown) [Example 41] |  |  | 100 |  | 98 | 100 | 75 |  |  |  |  |  |  |  |
| CC1CC(CC(C)(C)C)c2cccc(NC(=O)c3cn(C)nc3C(F)F)c21 (stereo not shown) [Example 18] | 4.44[a] |  | 100 | 93 | 100 | 100 | 83 |  |  |  |  |  |  |  |
| CC1CC2(CC2)c2cccc(NC(=O)c3cn(C)nc3C(F)F)c21 (stereo not shown) [Example 25] | 3.13[a] | 96 | 100 | 92 | 100 | 99 | 93 |  |  |  |  |  | 88 | 94 |
| CC1CC(C)c2c(NC(=O)c3cn(C)nc3C(F)F)cccc21 (stereo not shown) [Example 8] | 3.21[a] | 88 | 100 | 91 | 95 | 100 |  |  |  |  |  |  | 100 |  |
| CC1CC2(CC2)c2cccc(NC(=O)c3cn(C)nc3I)c21 (stereo not shown) [Example 52] | 3.24[a] |  |  |  |  |  |  | 87 | 90 | 88 | 100 |  |  |  |
| CC1CC2(CC2(Cl)Cl)c2cccc(NC(=O)c3cn(C)nc3C(F)F)c21 (stereo not shown) [Example 3] | 3.46[a] | 81 | 94 | 100 | 100 | 100 |  |  |  |  |  |  |  |  |
| CC(C)CC1CC(C)c2c(NC(=O)c3cn(C)nc3C(F)F)cccc21 (stereo not shown) [Example 33] | 4.24[a] | 97 | 98 | 93 | 100 | 100 | 97 |  |  |  |  |  |  |  |
